Source: patent US6683184B2, “Piperazine derivatives and process for the preparation thereof” (Samjin Pharmaceutical Co., Ltd., priority 1999, dated 2004)
Converted amounts (≈) assume the structure as drawn.

How the values were obtained:
Format in all cases: cell-based
[1] = tested on: A549 (human non-small lung cell); assay: In vitro antitumor effect against human tumor cell lines, SRB assay, A549; settings: A549 cells, 48 hours; for IC50: Homo sapiens, read-out: ED50 A 549
Procedure: (§1) In vitro antitumor effect against human tumor cell lines.
(§2) a. Human solid tumor cell lines, A549(non-small lung cell), SKMEL-2(melanoma), HCT-15(colon), SKOV-3(ovarian), XF-498(CNS) were cultured at 37° C. in 5% CO2 incubators using RPMI 1640 media containing 10% FBS, while they were transfer-cultured successively once or twice per week. Cell cultures were dissolved in a solution of 0.25% trypsin and 3 mM CDTA PBS(−) and then cells were separated from media which the cells were sticked on.
(§3) b. 5×10^3˜2×10^4 cells were added into each well of 96-well plate and cultured in 5% CO2 incubator, at 37° C., for 24 hours.
(§4) c. Each sample drug was dissolved in a little DMSO and diluted with the used medium to a prescribed concentration for experiments, wherein the final concentration of DMSO was controlled below 0.5%.
(§5) d. Medium of each well cultured for 24 hours as above b. was removed by aspiration. Each 200 μl of drug samples prepared in c. was added into each well and the wells were cultured for 48 hours. Tz(time zero) plates were collected at the point of time drugs were added.
(§6) e. According to the SRB assay method, cell fixing with TCA, staining with 0.4% SRB solution, washing with 1% acetic acid and elution of dye with 10 mM Tris solution were carried out on Tz plates and culture-ended plates, whereby OD values were measured at 520 nm.
(§7) a. Time zero(Tz) value was determined with measuring the SRB protein amounts of the Tz plates collected at the point of time drugs were added.
(§8) b. Control value(C) was determined with the OD values of wells untreated with a drug.
(§9) c. Drug-treated test value(T) was determined with the OD values of drug-treated wells.
(§10) d. Effects of drugs were estimated with growth stimulation, net growth inhibition, net killing etc., being calculated from Tz, C and T.
(§11) e. If T≧Tz, cellular response function was calculated by 100×(T−Tz)/(C−Tz), and if T<Tz, by 100×(T−Tz)/Tz.

[2] = tested on: P388 (mouse lymphoid neoplasma cell); assay: In vitro antitumor effects against animal leukemia cells, dye exclusion assay; settings: 48 hours, trypan blue dye exclusion, read-out: P388 (IC50, concentration showing 50% cell growth inhibition compared with the control)
Procedure: In vitro antitumor effects against animal leukemia cells.
Tumor cell line: P388 (mouse lymphoid neoplasma cell)
B. Method: Dye Exclusion Assay.
1) Concentrations of P388 cells being cultured in RPMI 1640 media containing 10% FBS were regulated to 1×10^6 cells/ml.
2) Sample drugs of respective concentrations diluted in the ratio of log doses were added into each cell culture and cultured at 37° C., for 48 hours, in […] incubator, and then viable cell numbers were measured by dye exclusion test using trypan blue.

SKMEL-2 (human melanoma) = assay: In vitro antitumor effect against human tumor cell lines, SRB assay, SKMEL-2; settings: SK-MEL-2 cells, 48 hours; for IC50: Homo sapiens, read-out: ED50 SK-MEL-2
Procedure: as §1, §2, §3, §4, §5, §6, §7, §8, §9, §10, §11

HCT-15 (human colon) = assay: In vitro antitumor effect against human tumor cell lines, SRB assay, HCT-15; settings: HCT 15 cells, 48 hours; for IC50: Homo sapiens, read-out: ED50 HCT 15
Procedure: as §1, §2, §3, §4, §5, §6, §7, §8, §9, §10, §11

XF 498 (human CNS) = assay: In vitro antitumor effect against human tumor cell lines, SRB assay, XF 498; settings: 48 hours; for IC50: Homo sapiens, XF498, XF-498 cells, read-out: ED50 XF-498; for ED50 XF-498: XF-498 cells
Procedure: as §1, §2, §3, §4, §5, §6, §7, §8, §9, §10, §11

SKOV-3 (human ovarian) = assay: In vitro antitumor effect against human tumor cell lines, SRB assay, SKOV-3; settings: SK-OV-3 cells, 48 hours; for IC50: Homo sapiens, read-out: ED50 SK-OV-3
Procedure: as §1, §2, §3, §4, §5, §6, §7, §8, §9, §10, §11

Row | Compound | IC50 [1] [ng/mL] | IC50 [2] [ng/mL] | IC50 (SKMEL-2 (human melanoma)) [ng/mL] | IC50 (HCT-15 (human colon)) [ng/mL] | IC50 (XF 498 (human CNS)) [ng/mL] | IC50 (SKOV-3 (human ovarian)) [ng/mL] | ED50 A 549 [1] [ng/mL] | ED50 SK-MEL-2 (SKMEL-2 (human melanoma)) [ng/mL] | ED50 HCT 15 (HCT-15 (human colon)) [ng/mL] | ED50 XF-498 (XF 498 (human CNS)) [ng/mL] | ED50 SK-OV-3 (SKOV-3 (human ovarian)) [ng/mL]
1 | COc1cc(OC)cc(N2CCN(C(=O)Nc3nc(C)c(C)nc3OC)CC2)c1 [Example 3, 1-[(5,6-Dimethyl-2-methoxypyrazin-3-yl)aminocarbonyl]-4-(3,5-dimethoxyphenyl)piperazine] | 1.6 (≈ 0.00399 µM) | 10 (≈ 0.0249 µM) | 1.5 (≈ 0.00374 µM) | 2 (≈ 0.00498 µM) | 2.2 (≈ 0.00548 µM) | 6.4 (≈ 0.0159 µM) |  |  |  |  | 
2 | COc1nc(C)c(C)nc1NC(=S)N1CCN(c2cc(C)cc(C)c2)CC1 [Example 30, 1-[(5,6-Dimethyl-2-methoxypyrazin-3-yl)aminothiocarbonyl]-4-(3,5-dimethylphenyl)piperazine] | 0.6 (≈ 0.00156 µM) | 70 (≈ 0.182 µM) | < 0.1 | 0.7 (≈ 0.00182 µM) | 0.5 (≈ 0.0013 µM) | 0.7 (≈ 0.00182 µM) |  |  |  |  | 
3 | COc1nc2ccccc2nc1NC(=S)N1CCN(c2cc(C)cc(C)c2)CC1 [Example 66, 1-[(2-Methoxyquinoxalin-3-yl)aminothiocarbonyl]-4-(3,5-di-methylphenyl)piperazine] | 5 (≈ 0.0123 µM) | 200 (≈ 0.491 µM) | 2 (≈ 0.00491 µM) | 3 (≈ 0.00736 µM) | 8 (≈ 0.0196 µM) | 8 (≈ 0.0196 µM) |  |  |  |  | 
4 | COc1ccccc1N1CCN(C(=O)Nc2nc3ccccc3nc2OC)CC1 [Example 37, 1-[(2-Methoxyquinoxalin-3-yl)aminocarbonyl]-4-(2-methoxyphenyl)-piperazine] | 10 (≈ 0.0254 µM) | 300 (≈ 0.762 µM) | 20 (≈ 0.0508 µM) | 9 (≈ 0.0229 µM) | 3 (≈ 0.00762 µM) | 20 (≈ 0.0508 µM) |  |  |  |  | 
5 | COc1cc(OC)cc(N2CCN(C(=S)Nc3nc4ccccc4nc3OC)CC2)c1 [Example 64, 1-[(2-Methoxyquinoxalin-3-yl)aminothiocarbonyl]-4-(3,5-dimethoxyphenyl)piperazine] | 19 (≈ 0.0432 µM) | 340 (≈ 0.774 µM) | 11 (≈ 0.025 µM) | 32 (≈ 0.0728 µM) | 14 (≈ 0.0319 µM) | 57 (≈ 0.13 µM) |  |  |  |  | 
6 | COc1ccccc1N1CCN(C(=O)Nc2nc(C)c(C)nc2OC)CC1 [Example 2, 1-[(5,6-Dimethyl-2-methoxypyrazin-3-yl)aminocarbonyl]-4-(2-methoxyphenyl)piperazine] | 32 (≈ 0.0862 µM) | 300 (≈ 0.808 µM) | 29 (≈ 0.0781 µM) | 19 (≈ 0.0512 µM) | 84 (≈ 0.226 µM) | 88 (≈ 0.237 µM) |  |  |  |  | 
7 | 1-[(5,6-Dichloroethyl-2-methoxypyrazin-3-yl)aminocarbonyl]-4-(3,5-dimethoxyphenyl)piperazine [Example 35] |  |  |  |  |  |  | 0.1 | <0.1 | 0.1 | 0.1 | 0.7
8 | COc1nc2ccccc2cc1N=C(NO)N1CCN(c2cccc(Cl)c2)CC1 [Example 176, N-Hydroxy-N′-(2-methoxyquinolin-3-yl)-[4-(3-chlorophenyl)-piperazin-1-yl]carboxyimidamide] |  |  |  |  |  |  | 1.2 (≈ 0.00291 µM) | 0.3 (≈ 0.000728 µM) | 0.1 (≈ 0.000243 µM) | 0.1 (≈ 0.000243 µM) | 0.9 (≈ 0.00219 µM)
9 | COc1cc(OC)cc(N2CCN(C(=Nc3cc(C)c(C)cc3OC)NO)CC2)c1 [Example 181, N-Hydroxy-N′-(4,5-dimethyl-2-methoxyphenyl-1-yl)-[4-(3,5-dimethoxyphenyl)piperazin-1-yl]carboxyimidamide] |  |  |  |  |  |  | 130 (≈ 0.314 µM) | 110 (≈ 0.265 µM) | 20 (≈ 0.0483 µM) | 40 (≈ 0.0965 µM) | 60 (≈ 0.145 µM)
10 | COc1nc(C)c(C)nc1NC(=O)N1CCN(c2ccccc2SC)CC1 [Example 14, 1-[(5,6-Dimethyl-2-methoxypyrazin-3-yl)aminocarbonyl]-4-(2-methylthiophenyl)piperazine] | 204 (≈ 0.526 µM) |  | 283 (≈ 0.73 µM) | 67 (≈ 0.173 µM) | 340 (≈ 0.877 µM) | 677 (≈ 1.75 µM) |  |  |  |  | 
11 | COc1nc2ccccc2nc1NC(=S)N1CCN(c2cc(F)cc(F)c2)CC1 [Example 68, 1-[(2-Methoxyquinoxalin-3-yl)aminothiocarbonyl]-4-(3,5-difluorophenyl)piperazine] | 380 (≈ 0.915 µM) |  | 340 (≈ 0.818 µM) | 310 (≈ 0.746 µM) | 470 (≈ 1.13 µM) | 860 (≈ 2.07 µM) |  |  |  |  | 
12 | CCc1ccccc1N1CCN(C(=O)Nc2nc3ccccc3nc2OC)CC1 [Example 39, 1-[(2-Methoxyquinoxalin-3-yl)aminocarbonyl]-4-(2-ethylphenyl)piperazine] | 100 (≈ 0.255 µM) |  | 70 (≈ 0.179 µM) | 60 (≈ 0.153 µM) | 140 (≈ 0.358 µM) | 330 (≈ 0.843 µM) |  |  |  |  | 
13 | COc1cc(OC)cc(N2CCN(C(=O)Nc3cc4ccccc4cc3OC)CC2)c1 [Example 87, 1-[(2-Methoxynaphth-3-yl)aminocarbonyl]-4-(3,5-dimethoxyphenyl)piperazine] | 10 (≈ 0.0237 µM) |  | 660 (≈ 1.57 µM) | 8 (≈ 0.019 µM) | 80 (≈ 0.19 µM) | 30 (≈ 0.0712 µM) |  |  |  |  | 
14 | CCc1nc(OC)c(N=C(NO)N2CCN(c3cc(OC)cc(OC)c3)CC2)cc1C(=O)OC [Example 159, N-Hydroxy-N′-(6-ethyl-5-methoxycarbonyl-2-methoxypyridin-3-yl)-[4-(3,5-dimethoxyphenyl)piperazin-1-yl]carboxyimidamide] |  |  |  |  |  |  | 29 (≈ 0.0612 µM) | 2 (≈ 0.00422 µM) | 0.6 (≈ 0.00127 µM) | 6 (≈ 0.0127 µM) | 10 (≈ 0.0211 µM)
15 | COc1nc2ccccc2cc1N=C(NO)N1CCN(c2cc(C)cc(C)c2)CC1 [Example 173, N-Hydroxy-N′-(2-methoxyquinolin-3-yl)-[4-(3,5-dimethylphenyl)-piperazin-1-yl]carboxyimidamide] |  |  |  |  |  |  | 400 (≈ 0.986 µM) | 150 (≈ 0.37 µM) | 180 (≈ 0.444 µM) | 210 (≈ 0.518 µM) | 860 (≈ 2.12 µM)
16 | COc1cc(OC)cc(N2CCN(C(=Nc3cc(CO)c(C)nc3OC)NO)CC2)c1 [Example 125, N-Hydroxy-N′-(5-hydroxymethyl-2-methoxy-6-methylpyridin-3-yl)-[4-(3,5-dimethoxyphenyl)piperazin-1-yl]carboxyimidamide] |  |  |  |  |  |  | 0.9 (≈ 0.00209 µM) | 0.1 (≈ 0.000232 µM) | 0.1 (≈ 0.000232 µM) | 0.1 (≈ 0.000232 µM) | 0.8 (≈ 0.00185 µM)
17 | CCc1ccccc1N1CCN(C(=O)Nc2nc(C)c(C)nc2OC)CC1 [Example 4, 1-[(5,6-Dimethyl-2-methoxypyrazin-3-yl)aminocarbonyl]-4-(2-ethylphenyl)piperazine] | 47 (≈ 0.127 µM) |  | 42 (≈ 0.114 µM) | 38 (≈ 0.103 µM) | 89 (≈ 0.241 µM) | 251 (≈ 0.679 µM) |  |  |  |  | 
18 | COc1nc(C)c(C)nc1NC(=O)N1CCN(c2cc(Cl)cc(Cl)c2)CC1 [Example 11, 1-[(5,6-Dimethyl-2-methoxypyrazin-3-yl)aminocarbonyl]-4-(3,5-dichlorophenyl)piperazine] |  | 20 (≈ 0.0487 µM) |  |  |  |  |  |  |  |  | 
